Measurements taken from patent US20030175314A1, “Pharmaceutical composition for dermal application” (priority 2001, published 2003).

How the values were obtained:
PDE4 = assay: in vitro PDE4 inhibition; format: biochemical; details: in vitro studies
From the text: (§1) The compound of formula I, 1,3-dicyclopropylmethyl-8-aminoxanthine, is also known by the proposed generic name cipamfylline. The compound and a method of its preparation is disclosed in U.S. Pat. No. 5,734,051 which is hereby incorporated by reference in its entirety.

lymphocyte proliferation = assay: in vitro lymphocyte proliferation; format: cell-based; details: in vitro studies
From the text: as §1

[1] = format: physicochemical
From the text: More specifically, the solvent comprises a non-toxic glycol or glycol ether selected from the group consisting of propylene glycol, butylene glycol, diethylene glycol and diethylene glycol ether. […] The advantageous dissolution properties of propylene glycol may be explained by the solubility properties of this particular solvent, as determined by the Hildebrand solubility coefficient (J H Hildebrand and R L Scott, The Solubility of Non-Electrolytes, Reinhold, N.Y., 1949). […] Thus propylene glycol has a Hildebrand coefficient within ±2 units of that of cipamfylline which makes it an effective solvent for this active component.

solubility = format: physicochemical
Procedure: Cipamfylline has a pronounced inner crystal bonding resulting in a high melting point (about 310-312° C.) and some degree of hydrophobicity. […] On the other hand, effective delivery of the active component into the epidermis where it can exert its effect requires that the compound be present in a dissolved state in said composition.

atopic dermatitis = assay: phase II left/right study, cipamfylline cream vs vehicle or Locoid cream (Example 2); format: in vivo, Humans; details: for decrease of total severity score: 1 g twice daily, two weeks
Procedure: In a phase II, multi-centre, randomised, double-blind left/right study comparing cipamfylline cream 1.5 mg/g (formulation B) with the reference vehicle without cipamfylline and with Locoid cream 0.1% (hydrocortisone-17-butyrate 0.1% cream) in patients suffering from atopic dermatitis, patients were randomised to either group (1) cipamfylline cream 1.5 mg/g in reference vehicle vs vehicle or (2) cipamfylline cream 1.5 mg/g in reference vehicle vs Locoid cream. One g of each cream were applied twice daily for two weeks. A total number of 108 patients with a clinical diagnosis of atopic dermatitis, with symmetrical lesions of atopic dermatitis on their arms with a minimum score of 6 in the total severity score (ratings of erythema, oedema/papulation, oozing/crusting, excoriations and lichenification on a scale from 0-3) were included. Excluded were patients with suspected infection in the treatment areas, patients who were receiving other treatment for atopic dermatitis or who were pregnant or planning to become pregnant in the course of the study.

[2] = system: secretion of proinflammatory cytokines such as tumour necrosis factor α (TNF-α), IL-10, IL-12 and IFN-γ; assay: in vitro secretion of proinflammatory cytokines; format: cell-based; details: in vitro studies
From the text: as §1

skin = skin irritation by the solvent; format: in vivo; details: propylene glycol in itself
From the text: Apart from being a solvent for cipamfylline, propylene glycol as a secondary penetration enhancer, i.e. a substance which is capable of penetrating the stratum corneum and “draw” low-molecular components such as therapeutically active components in the vehicle into the epidermis. […] For this reason, propylene glycol has previously been thought to be unsuitable for inclusion as a solvent in compositions intended for the treatment of atopic dermatitis. However, the present vehicle has been specifically designed to exclude all excipients which are capable of penetrating into the epidermis (or being “drawn” into the epidermis by the solvent) and which are not essential for formulation purposes, resulting in a composition which, according to the clinical tests described in Example 3 herein, gives rise to fewer irritative reactions in skin on which the composition is applied compared to a conventional reference formulation. This, of course, is particularly important for dermal formulations intended for application on inflamed, and therefore highly irritated skin so as to avoid a painful burning sensation at the site of application and more long-term irritation such as pain or itching.

SMILES | inhibition of PDE4 (PDE4) | effect on lymphocyte proliferation (lymphocyte proliferation) | Hildebrand coefficient (solubility parameter δ) [1] | solubility (solubility; water) | solubility with water as co-solvent (solubility; water present as a co-solvent in an amount of about 25% or more) | decrease of total severity score (atopic dermatitis; group (1) cipamfylline cream 1.5 mg/g (formulation B) vs vehicle, end of study) | decrease of total severity score (atopic dermatitis; group (2) cipamfylline cream 1.5 mg/g (formulation B) vs Locoid cream 0.1%, end of treatment) | patients with local adverse reactions (burning, stinging, pruritus) (atopic dermatitis; treated side, cipamfylline cream 1.5 mg/g vs vehicle) | inhibition of the secretion of proinflammatory cytokines (TNF-α, IL-10, IL-12, IFN-γ) [2] | skin irritation (skin)
Nc1nc2c([nH]1)c(=O)n(CC1CC1)c(=O)n2CC1CC1 [cipamfylline, 1,3-dicyclopropylmethyl-8-aminoxanthine] | potent and selective inhibitor | no effect | about 13.4 (cal/cm^3)^1/2 | < 50 µg/mL | greatly decreased | 38% | 30% | 15 % of the patients | inhibitor | 
CC(O)CO (centres unmarked) [propylene glycol] |  |  | about 14.8 (cal/cm^3)^1/2 |  |  |  |  |  |  | does not in itself give rise to any significant skin irritation
